The values below come from patent US9034303B2, “Neuroprotective and neuro-restorative iron chelators and monoamine oxidase inhibitors and uses thereof” (priority 2010, dated 2015).

pIC50: −log10 of the molar value. Entries after “also recorded” stand apart in the source; their conditions may differ. Like-named read-outs stand apart in the source and are kept apart here. Marks after values point to notes of the source that are not given here.

Data set [1] can be described thus: Stability in aqueous solution (PBS or saline) followed by HPLC. Format: physicochemical. The settings on record: for Stability in aqueous solution (in words): PBS and/or saline solution; for Amount of compound remaining (%): 0.5 mM. The method, then: (§1) Using high pressure liquid chromatography (HPLC), the stability of each of the tested compounds was determined by following its respective chemical character over time in either phosphate buffered saline (PBS) and/or 0.85% saline solution (sodium chloride). In each case, 0.5 mM of the tested compound in PBS or saline solution was incubated at 25° C. or at 37° C. for 20 hours or, in some cases, up to two days (48 hours).

The target of a further data set is rat brain MAO-A (Rattus norvegicus (Rat), UniProt P21396). The data set can be described thus: In vitro inhibition of rat brain MAO-A (14C-5-HT substrate). The settings on record: for pIC50: estimated from the data in FIG. 1, rat brain MAO-A, read-out: MAO-A IC50. It is filed as biochemical. As for the experimental part:
Rats are decapitated and the brains quickly taken into a weighted ice-cold sucrose buffer (0.32 M) and their weights determined. All subsequent procedures are performed at 0° C. The brains are homogenized in 0.32 M sucrose (one part tissue to 20 parts sucrose) in a Teflon glass homogenizer followed by the addition of sucrose buffer to a final concentration of 10% homogenate. The homogenates are centrifuged at 600 g for 15 min. The supernatant fractions are taken out and centrifuged at 4500 g for 30 min, the pellet diluted in 0.32 M sucrose buffer and kept frozen for later assaying of MAO. Protein concentration is determined with Bradford reagent at λ=595 nm, using BSA as a standard.
(§2) MAO-A and MAO-B activities are determined in rat brain homogenate in vitro following incubation with varying concentrations of the test compounds.
The activity of MAO-A and MAO-B was determined by the adapted method of Tipton & Youdim (Tipton K F, O'Sullivan J, Youdim M B, 1983, Encyclopedia of Neuroscience, 2004, G. Adelman and B. H. Smith, Elsevier). The test compound was added to a suitable dilution of the enzyme preparation (70 μg protein for MAO-B and 150 μg MAO-A assay) in 0.1 M phosphate buffer (pH 7.4). The mixture was incubated together with […], a specific inhibitor of MAO-B (for determination of MAO-A) or 0.05 M clorgylin, a specific inhibitor of MAO-A (for determination of MAO-B). Incubation was carried for 0.5 or 1 h at 37° C. before addition of ^14C-5-hydroxytryptamine binoxalate (5-HT) (100 or 400 μM) for determination of MAO-A, or ^14C-phenylethylamine (^14C-PEA) 100 or 400 μM for determination of MAO-B, and incubation continued for 30 min or 20 min, respectively. The reaction was stopped with 2 M ice-cold citric acid, and the metabolites were extracted and determined by liquid-scintillation counting in cpm units. […]
(§3) MAO-A and MAO-B activity was measured using radioactive substrates. The substrate for MAO-A was 5 HT and for MAO-B was PEA. When measuring the activity of MAO-A, the MAO-B activity was inhibited with deprenyl and when measuring the activity of MAO-B the activity of MAO-A was inhibited with clorgylin. Blank samples were produced using TCP to inhibit both of the enzymes. The metabolites were extracted to toluene and read in a β-counter. The results are expressed in relative activity and normalized to the amount of protein in the tissue.

The target in the next data set is rat brain MAO-B (Rattus norvegicus (Rat), UniProt P19643). The data set can be described thus: In vitro inhibition of rat brain MAO-B (14C-PEA substrate). Format: biochemical. The settings on record: for pIC50: estimated from FIG. 2, rat brain MAO-B, read-out: MAO-B IC50. As for the experimental part: Rats are decapitated and the brains quickly taken into a weighted ice-cold sucrose buffer (0.32 M) and their weights determined. All subsequent procedures are performed at 0° C. The brains are homogenized in 0.32 M sucrose (one part tissue to 20 parts sucrose) in a Teflon glass homogenizer followed by the addition of sucrose buffer to a final concentration of 10% homogenate. The homogenates are centrifuged at 600 g for 15 min. The supernatant fractions are taken out and centrifuged at 4500 g for 30 min, the pellet diluted in 0.32 M sucrose buffer and kept frozen for later assaying of MAO.
as §2
The in vitro inhibitory activity of the compounds is tested against rat brain MAO-B. The test compounds are added to buffer containing 10^−7 M clorgylin and are incubated with the tissue homogenate for 30 or 60 min at 37° C. before addition of ^14C-PEA.
The test compound was added to a suitable dilution of the enzyme preparation (70 μg protein for MAO-B and 150 μg MAO-A assay) in 0.1 M phosphate buffer (pH 7.4). The mixture was incubated together with […], a specific inhibitor of MAO-B (for determination of MAO-A) or 0.05 M clorgylin, a specific inhibitor of MAO-A (for determination of MAO-B). Incubation was carried for 0.5 or 1 h at 37° C. before addition of ^14C-5-hydroxytryptamine binoxalate (5-HT) (100 or 400 μM) for determination of MAO-A, or ^14C-phenylethylamine (^14C-PEA) 100 or 400 μM for determination of MAO-B, and incubation continued for 30 min or 20 min, respectively. The reaction was stopped with 2 M ice-cold citric acid, and the metabolites were extracted and determined by liquid-scintillation counting in cpm units.
The reaction was stopped with 2 M ice-cold citric acid, and the metabolites were extracted with ethyl acetate and levels of radioactivity were determined by liquid-scintillation counting in CPM units. All assays were performed at least in duplicate and outcome was expressed as a mean±SEM. Data were analyzed by a Student's t test. Variations were considered statistically significant at a p value of 0.05.
as §3

A short description of data set [2]: Follow-up stability experiment at 37° C. in PBS. Format: physicochemical. The method, then:
as §1
In addition, in a follow-up experiment the instability of M30, and the stability of compounds 3, 7 and 8 was also confirmed at 37° C. in PBS, Table 2, below.

Another data set has as its system SHSY-5Y cells. The data set can be described thus: Cytotoxicity in presence and absence of exogenous iron, SH-SY5Y. It is filed as cell-based, human. The settings on record: iron alone, 20 μM. The method, then: (§4) The potential of compound 3 to be toxic in the presence of free iron was also tested. The iron complexation method was based on the method of Leanderson and Tagesson (Carcinogenesis, 17, 545-550, 1996) with some modifications. Iron (III) was prepared from ferric ammonium citrate (Sigma, F5879) at 80 mM in sterile distilled water. Compound 3 was prepared at a 200 mM concentration in DMSO. Before each experiment, the freshly prepared iron (III) solution was diluted to 0.4 mM in PBS II (PBS containing 0.90 mM Ca^2+ and 0.49 mM Mg^2+). Compound 3 stock solutions were diluted to 2, 0.2, and 0.02 mM with PBS II. Equal volumes of the 0.4 mM iron (III) solution and compound 3 solutions were added together to prepare iron/test article complex solutions containing 1, 0.1, and 0.01 mM compound 3 and 0.2 mM iron (III). The compound 3 DMSO stock solution was diluted in PBS II at 1, 0.1, or 0.01 mM and used as compound 3 control without iron. An equal volume of the 0.4 mM iron (III) solution was diluted in PBS II to prepare a control containing only iron.
(§5) The medium was removed from the plated cells (both cell lines) and replaced with fresh medium (90 μL). Iron/compound 3 complex or compound 3 in PBS II without iron was added to cells in triplicate (10 μL) to final compound 3 concentrations of 100, 10, and 1 μM and an iron (III) concentration of 20 μM. Wells containing no cells were used as the background control. PBS II was run as vehicle control. Iron only was run at a final concentration of 20 μM.
(§6) Cell viability was determined as described above and cytotoxicity was compared between treatments with and without iron complexation.

The next data set deals with HepG2 cells. The data set can be described thus: Cytotoxicity in presence and absence of exogenous iron, HepG2. The settings on record: iron alone, 20 μM. Format: cell-based, human. As for the experimental part: as §4, §5, §6
Setting [3] is: concentration 0.01 mM, rat brain extracts.
Where [4] appears, read: concentration 0.1 mM, rat brain extracts.

Sequence of rat brain MAO-A (P21396 whole entry): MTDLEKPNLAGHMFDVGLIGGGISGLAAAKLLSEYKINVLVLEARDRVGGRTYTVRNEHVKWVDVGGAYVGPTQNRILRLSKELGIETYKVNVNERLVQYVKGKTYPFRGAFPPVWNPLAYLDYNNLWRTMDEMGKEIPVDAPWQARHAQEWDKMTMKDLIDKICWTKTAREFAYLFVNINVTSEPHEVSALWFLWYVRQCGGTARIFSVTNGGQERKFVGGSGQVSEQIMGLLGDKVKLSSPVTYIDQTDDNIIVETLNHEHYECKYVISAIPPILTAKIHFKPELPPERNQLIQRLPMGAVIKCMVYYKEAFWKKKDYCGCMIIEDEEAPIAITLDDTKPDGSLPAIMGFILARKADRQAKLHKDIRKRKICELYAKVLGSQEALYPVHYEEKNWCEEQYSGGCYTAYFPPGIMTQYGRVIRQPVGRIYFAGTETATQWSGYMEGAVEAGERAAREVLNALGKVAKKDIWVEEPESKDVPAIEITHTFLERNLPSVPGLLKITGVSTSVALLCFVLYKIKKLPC
Sequence of rat brain MAO-B (P19643 whole entry): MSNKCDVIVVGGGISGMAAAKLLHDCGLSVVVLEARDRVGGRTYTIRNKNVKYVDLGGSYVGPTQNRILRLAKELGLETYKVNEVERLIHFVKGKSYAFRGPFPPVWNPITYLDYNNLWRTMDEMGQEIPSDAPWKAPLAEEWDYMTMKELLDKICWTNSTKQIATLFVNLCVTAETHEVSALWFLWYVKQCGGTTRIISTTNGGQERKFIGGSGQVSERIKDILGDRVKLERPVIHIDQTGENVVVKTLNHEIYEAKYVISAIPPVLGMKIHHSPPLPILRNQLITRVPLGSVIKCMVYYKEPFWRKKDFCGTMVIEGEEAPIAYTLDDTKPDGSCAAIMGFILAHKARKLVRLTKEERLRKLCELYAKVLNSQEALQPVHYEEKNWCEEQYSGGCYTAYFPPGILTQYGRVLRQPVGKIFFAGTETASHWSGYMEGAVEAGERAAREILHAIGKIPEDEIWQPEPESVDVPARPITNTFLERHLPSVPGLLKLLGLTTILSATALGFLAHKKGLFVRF

In the case of `C#CCN(C)C(C)c1ccc(O)c2ncccc12` (stereo not shown) [5-(1-(methyl(prop-2-ynyl) amino)ethyl)quinolin-8-ol], the “Stability in aqueous solution (in words)” value in data set [1] was “**Decomposition of 5-(1-(methyl(prop-2-ynyl) amino)ethyl)quinolin-8-ol occurred immediately upon dissolution in PBS aspredicted by the working hypothesis”.

With `C#CCN(C)C(C)c1ccc(O)c2ncccc12` (stereo not shown) [5-(1-(methyl(prop-2-ynyl)amino)ethyl)quinolin-8-ol] [5-[1-(methyl-2-propyn-1-ylamino)ethyl]-8-quinolinol], the “Stability in aqueous solution (in words)” value in data set [1] is given as “decomposed immediately”. Also, the “Amount of compound remaining (%)” value in data set [1] (PBS, 25° C., 0.5 hours) is on record as 0.0** %.

A word on the pIC50: it is the negative decadic logarithm of the IC50, by convention in mol/L. For the compound `C#CCN(C)CCCc1ccc(O)c2ncccc12` [Compound 4, 5-[3-(methyl-2-propyn-1-ylamino)propyl]-8-quinolinol], the “Stability in aqueous solution (in words)” value in data set [1] was “highly stable chemically”. Besides, the “Amount of compound remaining (%)” value in data set [1] (PBS, 25° C., 0.5 hours) is 100%; in data set [1] (PBS, 25° C., 2 hours), 100%; in data set [1] (PBS, 25° C., 20 hours) it was 100%; in data set [1] (PBS, 25° C., 48 hours) it was 100%; in data set [1] (saline, 25° C., 0.5 hours), 100%; in data set [1] (saline, 25° C., 2 hours) it was 100%. Also, the “Amount of compound remaining (%)” value came out at 100% in data set [1] (saline, 25° C., 20 hours) and 100% in data set [1] (saline, 25° C., 48 hours). Also, the pIC50 on rat brain MAO-A (listed as compound 4) was about 6.70; at rat brain MAO-A, 6.70; on rat brain MAO-B, 7.00. At rat brain MAO-A, the “Inhibition of rat brain MAO-A in vitro (in words)” value is “potent inhibitors”. In addition, the “Inhibition of rat brain MAO-B in vitro (in words)” value on rat brain MAO-B is “potent inhibitors”.

With `C#CCN(C)CCc1cc(C2CC2)c(O)c2ncccc12` [Compound 7, 7-cyclopropyl-5-[2-(methyl-2-propyn-1-ylamino)ethyl]-8-quinolinol], the “Amount of compound remaining (%)” value in data set [2] (3 hours) is on record as 99.7%; in data set [2] (8 hours), 97.7%; in data set [2] (24 hours), 94.1%; in data set [2] (48 hours), 100%.

Turning to `C#CCN(C)CCc1cc(F)c(O)c2ncccc12` [Compound 8, 7-fluoro-5-[2-(methyl-2-propyn-1-ylamino)ethyl]-8-quinolinol], the “Amount of compound remaining (%)” value is on record as “≧100%” in data set [2] (3 hours), 96.7% in data set [2] (8 hours), “≧100%” in data set [2] (24 hours) and “≧100%” in data set [2] (48 hours).

Turning to `[Fe+3]` [Iron], the “SHSY-5Y cell death (%)” value with SHSY-5Y cells is given as −1.0%. Moreover, in the data set with HepG2 cells, the “HepG2 cell death (%)” value turned out to be 1.6%.

A word on the inhibition: it is the share of the control response that was lost under treatment. A high value points to a strong effect. Turning to `C#CCN(C)Cc1ccc(OC)c2ncccc12` [O-Methyl-M30], the values for the inhibition at 10 µM against rat brain MAO-A (setting [3]) and against rat brain MAO-B (setting [3]) were 98.5% and 87.8%, respectively. Also, the inhibition at 100 µM on rat brain MAO-A (setting [4]) is 99.7%; against rat brain MAO-B (setting [4]), 97.3%. In addition, the figures for the pIC50 at rat brain MAO-A and on rat brain MAO-B were 6.52 to 6.60 and 7.40 to 7.70, respectively. Further, the “Inhibition of rat brain MAO-A in vitro (in words)” value at rat brain MAO-A was “potent inhibitors”; on rat brain MAO-A (listed as O-methyl M30), “inhibits both brain MAO-A and MAO-B at apparently similar levels”. Moreover, the “Inhibition of rat brain MAO-B in vitro (in words)” value on rat brain MAO-B was “potent inhibitors”; at rat brain MAO-B (listed as O-methyl M30), “inhibits both brain MAO-A and MAO-B at apparently similar levels”.

As for `C#CCN(C)CCc1ccc(OC)c2ncccc12` [[O-Methyl-Compound 3], 8-methoxy-N-methyl-N-2-propyn-1-yl-5-quinolineethanamine], the “Stability in aqueous solution (in words)” value in data set [1] is “highly stable chemically; also recorded: stable in PBS at 37 °C for at least two days”. For the same compound, the “Amount of compound remaining (%)” value was 100% in data set [1] (PBS, 25° C., 0.5 hours); 100% in data set [1] (PBS, 25° C., 2 hours); 100% in data set [1] (PBS, 25° C., 20 hours); 100% in data set [1] (PBS, 25° C., 48 hours); 100% in data set [1] (saline, 37° C., 0.5 hours); 100% in data set [1] (saline, 37° C., 2 hours). The “Amount of compound remaining (%)” value stood at 100% in data set [1] (saline, 37° C., 20 hours) and 100% in data set [1] (saline, 37° C., 48 hours).
